Assay results: patent publication US20120202756A1, “USE OF PRODRUGS TO AVOID GI MEDIATED ADVERSE EVENTS” (priority 2009, published 2012)
Structures can show the parent of a compound that is named as a salt. Where two headings read alike, the source gives them in different places.

Legend:
[1] = test system: Clostridium sordellii; conditions: NCTC 13356
[2] = test system: Clostridium perfringens; assay: microbe, parasite or virus in culture; assay type: cell-based
[3] = test system: Streptococcus oralis; conditions: antibiotic-susceptible clinical isolate
[4] = test system: Campylobacter jejuni; assay: MIC, clindamycin prodrugs; assay type: cell-based
[5] = test system: Campylobacter coli; assay: MIC, clindamycin prodrugs; assay type: cell-based
[6] = test system: Group G Streptococcus; conditions: antibiotic-susceptible clinical isolate
[7] = Stability in simulated intestinal juice (FeSSIF); assay type: in vitro ADME; conditions: FeSSIF pH 5.0, pancreatin 1%
Protocol: (§1) To avoid direct interaction between the active drug and the gut microfloral population, the prodrug should not undergo premature chemical or enzymic cleavage back to the parent dug while within the gut lumen. To confirm this the prodrugs were incubated with USP SGF (simulated gastric fluid), FeSSIF (fed state simulated intestinal fluid) and FaSSIF (fasted state simulated intestinal fluid) and remaining prodrug and any generated active drug assayed by use of a qualified LC-MS/MS analytical method.
Pancreatin was again added at 1%.
(§2) To minimize the direct inhibitory action of this drug on gastric emptying/gut motility—and resultant nausea—the prodrug should not undergo premature chemical or enzymic cleavage back to the parent drug while within the gut lumen. To confirm this, the prodrugs were incubated with USP SGF (simulated gastric fluid), FeSSIF (fed state simulated intestinal fluid) and FaSSIF (fasted state simulated intestinal fluid) and remaining prodrug, and any generated active drug, assayed by use of a qualified LC-MS/MS analytical method.
as §1, with “gut,” for “gut microfloral population,”

[8] = test system: Staphylococcus epidermidis; assay: MIC, clindamycin prodrugs; assay type: cell-based
[9] = test system: Bifidobacterium dentium; assay: MIC, clindamycin prodrugs; assay type: cell-based; conditions: NCTC 11816
[10] = test system: Helicobacter pylori; assay: MIC, clindamycin prodrugs; assay type: cell-based
[11] = test system: Group C Streptococcus; assay: MIC, clindamycin prodrugs; assay type: cell-based; conditions: antibiotic-susceptible clinical isolate
[12] = test system: Eggerthella lenta; assay: MIC, clindamycin prodrugs; assay type: cell-based
[13] = test system: Staphylococcusaureus; assay: MIC, clindamycin prodrugs; assay type: cell-based
[14] = test system: Bacteroides fragilis; assay: MIC, clindamycin prodrugs; assay type: cell-based
[15] = test system: Propionibacterium acnes; assay: MIC, clindamycin prodrugs; assay type: cell-based
[16] = test system: Streptococcus pneumoniae; assay: MIC, clindamycin prodrugs; assay type: cell-based
[17] = test system: Staphylococcus haemolyticus; assay: MIC, clindamycin prodrugs; assay type: cell-based; conditions: antibiotic susceptible clinical isolate
[18] = test system: Bifidobacterium longum; assay: MIC, clindamycin prodrugs; assay type: cell-based; conditions: NCTC 11818
[19] = test system: Streptococcus pyogenes; assay: MIC, clindamycin prodrugs; assay type: cell-based
[20] = test system: Bacteroides thetaiotamicron; assay: MIC, clindamycin prodrugs; assay type: cell-based
[21] = test system: Prevotella melaninogenicus; assay: MIC, clindamycin prodrugs; assay type: cell-based
[22] = test system: Veillonella atypical; assay: MIC, clindamycin prodrugs; assay type: cell-based; conditions: NCTC 11830
[23] = test system: Bifidobacterium adolescentis; assay: MIC, clindamycin prodrugs; assay type: cell-based; conditions: NCTC 11814
[24] = test system: Clostridium sporogenes; assay: MIC, clindamycin prodrugs; assay type: cell-based; conditions: ATCC 3584
[25] = test system: Prevotella oralis; conditions: clinical isolate
[26] = Stability in simulated intestinal juice (FaSSIF); assay type: in vitro ADME; conditions: FaSSIF pH 6.5, pancreatin 1%, prodrug 20 μg/mL
Protocol: as §1
(§3) Method—Prodrug (20 μg/mL) in the FaSSIF cocktail comprising sodium taurocholate 3 mM, lecithin 0.75 mM, NaOH 8.7 mM, NaH2PO4. H2O 28.7 mM, NaCl 106 mM, pancreatin 1% (overall pH 6.5) was incubated for 2 h at 37° C. After acidifying the incubation to stop any reaction the amount of prodrug remaining and drug generated were determined using a qualified LC-MS/MS method.
as §2
as §3, with “Prodrug” for “Method—Prodrug”
as §1, with “gut,” for “gut microfloral population,”

[27] = test system: Streptococcus agalactiae; conditions: antibiotic-susceptable clinical isolate
[28] = test system: Veillonella parvula; assay: MIC, clindamycin prodrugs; assay type: cell-based; conditions: NCTC 11810
[29] = test system: Prevotella bivia; conditions: ATCC 29303
[30] = test system: Corynebacterium jeikeium; conditions: antibiotic-susceptible clinical isolate
[31] = antibiotic-susceptible clinical isolate
[32] = antibiotic susceptible clinical isolate
[33] = methicillin-resistant clinical isolate
[34] = ATCC 25923 - antibiotic-susceptible type strain
[35] = ATCC 29213 - antibiotic-susceptible type strain
[36] = ATCC 43300 - methicillin-resistant type strain
[37] = clinical isolate MIC clindamycin 0.5 mg/L
[38] = ATCC 49619 antibiotic-susceptible type strain
[39] = penicillin-susceptible clinical isolate
[40] = Macrolide (MLS) resistant clinical isolate
[41] = clinical isolate (first listed, r37)
[42] = clinical isolate (second listed, r38)

With `CCCC1CC(C(=O)NC(C(C)Cl)C2OC(SC)C(OC(=O)CCCC(=O)Nc3ccc(C(=O)O)cc3)C(O)C2O)N(C)C1.O=C(O)C(F)(F)F` (stereo not shown) [Clindamycin glutaryl PABA ester, Clindamycin-2-(glutaryl-PABA) ester trifluoroacetate] the Minimum inhibitory concentration [1] was >64 µg/mL, the Minimum inhibitory concentration ([2]; ATCC 13124) was 8 µg/mL and the Minimum inhibitory concentration [2, 31] was 8 µg/mL. The Minimum inhibitory concentration [3] was 0.5 µg/mL, the Minimum inhibitory concentration ([4]; ATCC 33560) was “≦0.03 ug/mL” and the Minimum inhibitory concentration ([4]; clinical isolate) was “≦0.03 ug/mL”. The Minimum inhibitory concentration ([5]; ATCC 33559) was “≦0.03 ug/mL”, the Minimum inhibitory concentration ([5]; clinical isolate) was 0.06 µg/mL and the Minimum inhibitory concentration [6] was 2 µg/mL. The “Simulated intestinal juice (2 h, 37° C.) (FeSSIF) % active drug generated” value [7] was <1%, the Minimum inhibitory concentration [8, 32] was 4 µg/mL and the Minimum inhibitory concentration [8, 33] was 8 µg/mL. For the same compound, the Minimum inhibitory concentration [9] was 2 µg/mL, the Minimum inhibitory concentration ([10]; ATCC 43504) was “≦0.03 ug/mL” and the Minimum inhibitory concentration ([10]; clinical isolate (r56)) was “≦0.03 ug/mL”. The Minimum inhibitory concentration ([10]; clinical isolate (r57)) was “≦0.03 ug/mL”, the Minimum inhibitory concentration ([10]; clinical isolate (r100)) was “≦0.03 ug/mL” and the Minimum inhibitory concentration ([10]; clinical isolate (r101)) was “≦0.03 ug/mL”. The Minimum inhibitory concentration [11] was 2 µg/mL, the Minimum inhibitory concentration ([12]; ATCC 43055) was 16 µg/mL and the Minimum inhibitory concentration ([12]; clinical isolate) was 16 µg/mL. For the same compound, the Minimum inhibitory concentration [13, 34] was 4 µg/mL, the Minimum inhibitory concentration [13, 35] was 4 µg/mL and the Minimum inhibitory concentration [13, 36] was >64 µg/mL. For the same compound, the Minimum inhibitory concentration ([14]; ATCC 25285) was 64 µg/mL, the Minimum inhibitory concentration ([14]; clinical isolate) was 16 µg/mL and the Minimum inhibitory concentration [15] was 8 µg/mL. For the same compound, the Minimum inhibitory concentration [15, 37] was 8 µg/mL, the Minimum inhibitory concentration [16, 38] was 2 µg/mL and the Minimum inhibitory concentration [16, 39] was 1 µg/mL. It also gave a Minimum inhibitory concentration [17] of 4 µg/mL, a Minimum inhibitory concentration [18] of 2 µg/mL and a Minimum inhibitory concentration [19, 40] of 4 µg/mL. For the same compound, the Minimum inhibitory concentration [19, 31] was 2 µg/mL, the Minimum inhibitory concentration ([20]; ATCC 29741) was >64 µg/mL and the Minimum inhibitory concentration ([20]; NCTC 10582) was >64 µg/mL. For the same compound, the Minimum inhibitory concentration [21, 41] was 0.5 µg/mL, the Minimum inhibitory concentration [21, 42] was 1 µg/mL and the Minimum inhibitory concentration [22] was 4 µg/mL. For the same compound, the Minimum inhibitory concentration [23] was 2 µg/mL, the Minimum inhibitory concentration [24] was >64 µg/mL and the Minimum inhibitory concentration [25] was “≦0.03 ug/mL”. The “Simulated intestinal juice (2 h, 37° C.) (FaSSIF) % active drug generated” value [26] was <1%, the Minimum inhibitory concentration [27] was 2 µg/mL and the Minimum inhibitory concentration [28] was 4 µg/mL. The Minimum inhibitory concentration [29] was 1 µg/mL and the Minimum inhibitory concentration [30] was >64 µg/mL.

Compound `CCCC1CC(C(=O)NC(C(C)Cl)C2OC(SC)C(OC(=O)CCC(=O)N[C@H](C(=O)O)C(C)C)C(O)C2O)N(C)C1` (stereo partly drawn) [Clindamycin succinyl valine ester, Clindamycin-2-[succinyl-(S)-valine]ester trifluoroacetate] has a Minimum inhibitory concentration [1] of 16 µg/mL, a Minimum inhibitory concentration ([2]; ATCC 13124) of 1 µg/mL and a Minimum inhibitory concentration [2, 31] of 1 µg/mL. For the same compound, the Minimum inhibitory concentration [3] was 0.25 µg/mL, the Minimum inhibitory concentration ([4]; ATCC 33560) was “≦0.03 ug/mL” and the Minimum inhibitory concentration ([4]; clinical isolate) was “≦0.03 ug/mL”. The Minimum inhibitory concentration ([5]; ATCC 33559) was “≦0.03 ug/mL”, the Minimum inhibitory concentration ([5]; clinical isolate) was “≦0.03 ug/mL” and the Minimum inhibitory concentration [6] was 1 µg/mL. The “Simulated intestinal juice (2 h, 37° C.) (FeSSIF) % active drug generated” value [7] was <1%, the Minimum inhibitory concentration [8, 32] was 2 µg/mL and the Minimum inhibitory concentration [8, 33] was 4 µg/mL. The Minimum inhibitory concentration [9] was 0.5 µg/mL, the Minimum inhibitory concentration ([10]; ATCC 43504) was “≦0.03 ug/mL” and the Minimum inhibitory concentration ([10]; clinical isolate (r56)) was “≦0.03 ug/mL”. The Minimum inhibitory concentration ([10]; clinical isolate (r57)) was “≦0.03 ug/mL”, the Minimum inhibitory concentration ([10]; clinical isolate (r100)) was “≦0.03 ug/mL” and the Minimum inhibitory concentration ([10]; clinical isolate (r101)) was “≦0.03 ug/mL”. For the same compound, the Minimum inhibitory concentration [11] was 1 µg/mL, the Minimum inhibitory concentration ([12]; ATCC 43055) was 8 µg/mL and the Minimum inhibitory concentration ([12]; clinical isolate) was 8 µg/mL. For the same compound, the Minimum inhibitory concentration [13, 34] was 1 µg/mL, the Minimum inhibitory concentration [13, 35] was 2 µg/mL and the Minimum inhibitory concentration [13, 36] was >64 µg/mL. For the same compound, the Minimum inhibitory concentration ([14]; ATCC 25285) was 8 µg/mL, the Minimum inhibitory concentration ([14]; clinical isolate) was 8 µg/mL and the Minimum inhibitory concentration [15] was 2 µg/mL. For the same compound, the Minimum inhibitory concentration [15, 37] was 2 µg/mL, the Minimum inhibitory concentration [16, 38] was 0.5 µg/mL and the Minimum inhibitory concentration [16, 39] was 0.5 µg/mL. It also gave a Minimum inhibitory concentration [17] of 2 µg/mL, a Minimum inhibitory concentration [18] of 0.5 µg/mL and a Minimum inhibitory concentration [19, 40] of 2 µg/mL. For the same compound, the Minimum inhibitory concentration [19, 31] was 1 µg/mL, the Minimum inhibitory concentration ([20]; ATCC 29741) was 16 µg/mL and the Minimum inhibitory concentration ([20]; NCTC 10582) was 32 µg/mL. It also gave a Minimum inhibitory concentration [21, 41] of 0.25 µg/mL, a Minimum inhibitory concentration [21, 42] of 0.25 µg/mL and a Minimum inhibitory concentration [22] of 2 µg/mL. The Minimum inhibitory concentration [23] was 0.5 µg/mL, the Minimum inhibitory concentration [24] was >64 µg/mL and the Minimum inhibitory concentration [25] was “≦0.03 ug/mL”. For the same compound, the “Simulated intestinal juice (2 h, 37° C.) (FaSSIF) % active drug generated” value [26] was <1%, the Minimum inhibitory concentration [27] was 1 µg/mL and the Minimum inhibitory concentration [28] was 1 µg/mL. For the same compound, the Minimum inhibitory concentration [29] was 0.5 µg/mL and the Minimum inhibitory concentration [30] was >64 µg/mL.
